Test results: patent publication EP4567167A1, “ELECTROSPUN FIBERS COMPRISING SURFACE-REACTED CALCIUM CARBONATE AND ACTIVE INGREDIENTS” (Omya International AG, priority 2023, dated 2025)

Experiment: Production of drug-loaded fibers without SRCC by electrospinning
Conditions: PCL in chloroform/acetone
Procedure: The spinning dispersion was prepared by mixing the solid carriers into a 15%, w/w solution of PCL, that was dissolved in a mix of chloroform/acetone, (40/60,w/w). The polymer solution was prepared separately. Therefore, the polymer was added slowly to avoid formation of clumps and subsequently stirred for at least 24 h at room temperature.
The emitter was an assembly of 4 blunt needles (21G) that were surrounded by nitrogen gas saturated with acetone (Figure 3 b)) to avoid bearding at the tip of the needles due to fast evaporation of solvents from the polymer solution. The lateral movement was adapted to the width of the drum collector (0.3 m) at a speed of approx. 0.1 m/s. Working distance (distance between emitter and collector) was 0.2 m and liquid feed rate was kept at 3ml/h for each needle using a syringe pump. A total of 30 ml was spun. The potential was adjusted to approx. -20kV ± 2kV in order to maintain a stable spray. The dimensions of the collector (rotating drum) were 0.3 m in width and a diameter of 0.1 m. The drum was rotated at 500 rpm. The drum was covered with aluminum and finally coated with magnesium-stearate to avoid the product from adhering/sticking to the aluminum foil. The process was constantly supervised. Needles were cleaned and the electric potential was adjusted when necessary to maintain a stable spinning process.

solubility in the spinning solution: too low
Structure (SMILES): Nc1nc2c(ncn2COCCO)c(=O)[nH]1 [Acyclovir]
